# Assay results reported in patent publication US7745465B2, “Method of enhancing cellular production of molecular chaperone, hydroxylamine derivatives useful for enhancing the chaperone production and the preparation thereof” (CytRx Corporation, priority 1995, dated 2010).
# Test system: HSP72
# Experiment: Heat stress induced HSP72 production in 3T3 cells
# Assay type: cell-based, mouse
# Conditions: 10^−5 M, treatment 15 min. before 30 min. 43° C. heat stress
# Procedure: From the applied cells the 3T3 and L-929 mouse fibroblasts were cultured in MEM medium and grew in monolayer, the U-937 human leukemia cells were maintained in RPMI-1640 medium, in suspension culture, while the HeLa human epithelial cells were cultured in DMEM medium and in monolayer form. Cell cultures were maintained as described in example 6.2 (a) with the difference that cells were cultured in the above mentioned culture mediums.
# Experiments were carried out applying stress before and after the drug treatment. Stress was provoked by heat, by chemical agent, HgCl2 treatment. The test compounds were applied in the treatments at the 10^−5 M concentration.
# The experiments on 3T3 cell applying heat stress were performed as described in the 6.2. (c) point of example 6, with the difference that stress was induced by a 30 min. exposure at 43° C. temperature and treatment with the test compounds was performed 15 min. before or 100 min. after the heat stress.
# Immunodetection was carried out using the HSP72 specific SPA 810 (StressGene) primary and the horse-radish peroxidase conjugated A9044 (Sigma) secondary antibodies. Densitometric evaluation was performed by a LKB Ultrascan XL densitometer.
row,Compound,HSP72 level relative to the stress exposed control
1,"O=C(O)/C=C\C(=O)O.OC(CON=C(Cl)c1cccnc1)CN1CCCCC1 (single isomer, unassigned; (-)) [(−)N-[2-hydroxy-3-(1-piperidinyl)-propoxy]-3-pyridine-carboximidoyl-chloride-(Z)-2-butenedioate(1:1)]",+++ (>100%)
2,"O=C(O)/C=C\C(=O)O.c1cncc(C2=NOCC(CN3CCCCC3)O2)c1 (stereo not shown) [3-(3-piridyl)-5-[(1-piperidinyl)-methyl]-5,6-dihydro-6H-1,4,2-dioxazine-(Z)-2-butenedioate(1:1)]",++ (51-100%)
3,"Cl.c1ccc(C2=NOCC(CN3CCCCC3)O2)cc1 (stereo not shown) [3-phenyl-5-[(1-piperidinyl)-methyl]-5,6-dihydro-6H-1,4,2-dioxazine hydrochloride]",++ (51-100%)
4,Cl.Cl.N=C(NOCC(O)CN1CCCCC1)c1cnc2ccccc2c1 (stereo not shown) [Example 42],+++ (>100%)
5,"CCCNC(=O)NOCC(O)CN1CCCCC1 (stereo not shown) [Example 56, N-[2-hydroxy-3-(1-piperidinyl)propoxy]-N′-propyl-urea]",+++ (>100%)
6,"CN(C)C(=Nc1ccccc1)NOCC(O)CN1CCCCC1.Cl (stereo not shown) [Example 71, N,N-dimethyl-N′-[2-hydroxy-3-(1-piperidinyl)-propoxy]-N″-phenyl-guanidine hydrochloride]",0 (0 indicates that the treatment altered by ±20% the stress induced hsp72 level in the cells)
7,Cl.OC(CON(C(=Nc1ccccc1)c1ccccc1)c1ccccc1)CN1CCCCC1 (stereo not shown) [Example 73],0 (0 indicates that the treatment altered by ±20% the stress induced hsp72 level in the cells)
8,COC(=NOCCCN1CCCCC1)c1cccnc1.O=C(O)/C=C\C(=O)O [Methyl-{N-[3-(1-piperidinyl)-propoxy]}-3-pyridine-carboximidate maleate],0 (0 indicates that the treatment altered by ±20% the stress induced hsp72 level in the cells)
9,"CN(C)C(=NOCCCN1CCCCC1)Nc1ccccc1.Cl [N,N-dimethyl-N′-phenyl-N″-[3-(1-piperidinyl)-propoxy]-guanidine hydrochloride]",++ (51-100%)
10,CCCCCCNC(=O)N(C)OCCCN1CCCCC1 [N-[3-(I-piperidinyl)-propoxy]-N-methyl-N′-(n-hexyl)-urea],0 (0 indicates that the treatment altered by ±20% the stress induced hsp72 level in the cells)
11,Cl.c1cncc(C(=NOCCCN2CCCCC2)N2CCCC2)c1 [N-[3-(I-piperidinyl)-propoxy]-N′-tetramethylene-3-pyridine-carboxamidine hydrochloride],+++ (>100%)
12,CC(=O)OC(CONC(=O)NC1CCCCC1)CN1CCCCC1.Cl (stereo not shown) [N-cyclohexyl-N′-[2-acetoxy-3-(1-piperidinyl)-propoxy]-urea hydrochloride],0 (0 indicates that the treatment altered by ±20% the stress induced hsp72 level in the cells)
13,CN(OCCCN1CCCCC1)C(=O)c1cccc(C(F)(F)F)c1.Cl [N-methyl-N-[3-(1-piperidinyl)-propoxy]-m-trifluoromethyl-benzamide hydrochloride],+++ (>100%)
14,N-(2-hydroxy-3-piperidino-propoxy)-ethylurethane,+ (21-50%)
15,N-[2-hydroxy-3-(1-piperidinyl)-propoxy]-benzylurethane,0 (0 indicates that the treatment altered by ±20% the stress induced hsp72 level in the cells)

# Same assay, conditions: 10^−5 M, treatment 100 min. after 30 min. 43° C. heat stress
row,Compound,HSP72 level relative to the stress exposed control
1,Cl.Cl.N=C(NOCC(O)CN1CCCCC1)c1cnc2ccccc2c1 (stereo not shown) [Example 42],+++ (>100%)
